Data: paper PMC9821843, “Powerful Potential of Polyfluoroalkyl-Containing 4-Arylhydrazinylidenepyrazol-3-ones for Pharmaceuticals” (Molecules, 2022)
≈ marks a conversion by molar mass, not a printed value. Where “and” joins values, the source holds several entries; their conditions need not be identical. Equal values may be shown once. Read-outs that look alike come from different tables or passages of the source.

Columns and labels:
[1] = ABTS radical cation scavenging activity assay; design: key to ABTS•+-scavenging activity, TEAC (trolox equivalent antioxidant capacity): TEAC = ratio of compound slope to Trolox slope vs ABTS absorbance; settings: mean ± SEM; for ABTS•+-scavenging activity, TEAC (trolox equivalent antioxidant capacity): n.a. = inactive
Procedure, shortened: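 ABTS•+ (from 7 mM ABTS plus 2.45 mM persulfate) mixed with compound, 5 × 10^–7–4 × 10^–4 M, 1 h at 30 °C; absorbance decrease read at 734 nm. TEAC from slope ratio versus Trolox; IC50 as 50% radical reduction for compounds exceeding 60% reduction at 100 µM.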

Sprague-Dawley (SD) rats = test: Hot plate test (analgesic activity); type: in vivo; settings: ip; for change in vivo at 15 mg/kg: Rattus norvegicus
Procedure, shortened: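 Test compounds were given i.p. as suspensions in 1% starch mucilage to SD rats (3 male, 3 female per group), vehicle as negative control. At 1 and 2 h post-dose, latency to nociceptive response (jumping, hind paw licking/shaking) on a 50 °C plate was recorded, 30 s cutoff.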

[2] = Acute toxicity evaluation in mice (ip); settings: CD-1, mouse, in vivo, 300 mg/kg
Procedure: The toxicity evaluation was performed on CD-1 mice. […] The tested compounds in 1% starch mucilage were injected intraperitoneally into three mice. Then, animals were observed during 14 days, the number of deaths was counted and % of viability calculated.

human dermal fibroblasts = test: Cytotoxicity against human dermal fibroblasts (MTT assay); type: cell-based; settings: Fibroblast, 72 h, MTT, n.a. = inactive, read-out: IC50, Human Dermal Fibroblasts
Procedure: Cytotoxicity of compounds was evaluated using a culture of human dermal fibroblasts, which were isolated in the Laboratory of Cell Cultures of the Institute of Medical Cell Technologies, Ekaterinburg, Russia and a HeLa tumor cell line obtained at the shared research facility «Vertebrate cell culture collection» of the Institute of Cytology of the Russian Academy of Sciences, St. Petersburg, Russia. Cells were seeded in 96-well plates in the inoculum dose of 2 × 10^5 cells/mL and cultured for 24 h in DMEM, with 1% glutamine in the presence of 10% fetal bovine serum and gentamicin (50 mg/L) at 37 °C, with humidified atmosphere of 5% CO2. Then compounds, which were dissolved in DMSO, were added to the wells at the final concentrations of 10^–7, 10^–6, 10^–5 and 10^–4 M. The cells were incubated with compounds for 72 h, after which cell viability was assessed using the standard MTT assay. The assay was carried out in four replicates with negative (culture medium), positive (solution of the cytotoxic drug camptothecin at a concentration of 3 mM) controls and the solvent control (DMSO). The results of the MTT assay were evaluated on a Tecan Infinite M200 PRO (Tecan Austria GmbH, Grödig, Austria) plate spectrophotometer by comparing the optical density of a formazan solution at 570 nm in the assay and control wells. The half maximal inhibitory concentrations (IC50) were calculated by AAT Bioquest-calculator (https://www.aatbio.com/tools/ic50-calculator (accessed on 14 November 2022)).

[3] = system: Neisseria gonorrhoeae ATCC 49226/NCTC 12700; test: Antibacterial activity against Neisseria gonorrhoeae; type: cell-based; settings: read-out: MIC against Neisseria gonorrhoeae
[4] = system: Microsporum canis RCPF F 1643/1585; test: Antifungal susceptibility testing, M. canis; settings: for MIC: Microsporum canis, RCPFF1643/1585, read-out: MIC for fungi strains inhibition, M. canis
Text: (§1) The solvent was DMSO. […] In each test, a growth control and a sterility control were used.

[5] = system: Epidermophyton floccosum RCPF F 1659/17; test: Antifungal susceptibility testing, E. floccosum; settings: for MIC: Epidermophyton floccosum, RCPFF1659/17, read-out: MIC for fungi strains inhibition, E. floccosum
Text: as §1

[6] = hot plate test, rats, dose 15 mg/kg, 1 h, n.a. = inactive (p > 0.05), read-out: Latent Period Prolongation, % 1 h
[7] = hot plate test, rats, dose 15 mg/kg, 2 h, n.a. = inactive (p > 0.05), read-out: Latent Period Prolongation, % 2 h
[8] = 1 h, read-out: Latent Period Prolongation, % 1 h
[9] = 2 h, read-out: Latent Period Prolongation, % 2 h

Row | SMILES | IC50 [1] [µM] | ABTS•+-scavenging activity, TEAC (trolox equivalent antioxidant capacity) [1] | change in vivo at 15 mg/kg (Sprague-Dawley (SD) rats; [6]) [%] | survival at 14 days [2] [%] | IC50 (human dermal fibroblasts) [µM] | MIC [3] [µg/mL] | MIC [4] [µg/mL] | change in vivo at 15 mg/kg (Sprague-Dawley (SD) rats; [7]) [%] | MIC [5] [µg/mL] | MIC for fungi strains inhibition, M. canis [4] [µg/mL] | MIC for fungi strains inhibition, E. floccosum [5] [µg/mL] | analgesic activity in the hot plate test (Sprague-Dawley (SD) rats; SD rats, dose 15 mg/kg, 1 and 2 h) | change in vivo at 15 mg/kg (Sprague-Dawley (SD) rats; [8]) [%] | change in vivo at 15 mg/kg (Sprague-Dawley (SD) rats; [9]) [%]
1 | O=C1NN=C(C(F)(F)F)/C1=N/Nc1ccccc1 [5a, (Z)-4-(2-Phenylhydrazinylidene)-5-(trifluoromethyl)-2,4-dihydro-3H-pyrazol-3-one] | 42.8 ± 2.3 | 0.50 ± 0.03 | 40 | 100 |  |  |  |  |  |  |  |  |  | 
2 | Cc1ccc(N/N=C2\C(=O)NN=C2C(F)(F)F)cc1 [5b, (4Z)-4-[2-(4-Methylphenyl)hydrazinylidene]-5-(trifluoromethyl)-2,4-dihydro-3H-pyrazol-3-one] | 46.2 ± 2.4 | 0.42 ± 0.03 | 69.5 | 100 | 8.18 ± 0.73 | 62.5 (≈ 231 µM) | 100 (≈ 370 µM) | 59.7 | > 200 |  |  |  |  | 
3 | O=C1NN=C(C(F)(F)F)/C1=N/Nc1ccc(Br)cc1 [5c, (4Z)-4-[2-(4-Bromophenyl)hydrazinylidene]-5-(trifluoromethyl)-2,4-dihydro-3H-pyrazol-3-one] | 41.5 ± 2.4 | 0.40 ± 0.02 |  | 100 |  | 125 (≈ 373 µM) | 25 (≈ 74.6 µM) | 51 | 12.5 (≈ 37.3 µM) | 25 | 12.5 |  |  | 
4 | Cc1ccc(N/N=C2\C(=O)N(C)N=C2C(F)(F)F)cc1 [5d, (4Z)-2-Methyl-4-[2-(4-methylphenyl)hydrazinylidene]-5-(trifluoromethyl)-2,4-dihydro-3H-pyrazol-3-one] | 161 ± 3.2 | 0.15 ± 0.01 |  | 100 |  | 15.6 (≈ 54.9 µM) | 200 (≈ 704 µM) |  | 200 (≈ 704 µM) |  |  | inactive |  | 
5 | Cc1ccc(N/N=C2\C(=O)N(c3ccccc3)N=C2C(F)(F)F)cc1 [5f, (4Z)-4-[2-(4-Methylphenyl)hydrazinylidene]-2-phenyl-5-(trifluoromethyl)-2,4-dihydro-3H-pyrazol-3-one] |  | 0.1 ± 0.006 | 63 | 100 | 20.5 ± 2.52 | 62.5 (≈ 180 µM) | 200 (≈ 578 µM) | 68 | 200 (≈ 578 µM) |  |  |  |  | 
6 | CS(=O)(=O)c1ccc(N/N=C2\C(=O)N(c3ccccc3)N=C2C(F)(F)F)cc1 [5m, (4Z)-4-(2-[4-(Methylsulfonyl)phenyl]hydrazinylidene)-2-phenyl-5-(trifluoromethyl)-2,4-dihydro-3H-pyrazol-3-one] |  |  | 116 | 100 |  | 125 (≈ 305 µM) | > 200 | 144 | > 200 |  |  |  |  | 
7 | Cc1ccc(N/N=C2\C(=O)N(c3ccc(S(N)(=O)=O)cc3)N=C2C(F)(F)F)cc1 [5p, (4Z)-2-[4-(Aminosulfonyl)phenyl]-4-[2-(4-methylphenyl)hydrazinylidene]-5-(trifluoromethyl)-2,4-dihydro-3H-pyrazol-3-one] |  | 0.03 ± 0.002 | 62.1 | 100 |  | 62.5 (≈ 147 µM) | > 200 | 70.9 | > 200 |  |  |  |  | 
8 | Cc1ccc(N/N=C2\C(=O)NN=C2C(F)(F)C(F)(F)F)cc1 [6a, (4Z)-4-[2-(4-Methylphenyl)hydrazinylidene]-5-(pentafluoroethyl)-2,4-dihydro-3H-pyrazol-3-one] | 46.8 ± 2.1 | 0.45 ± 0.03 | 83.9 | 100 | 13 ± 2.56 | 62.5 (≈ 195 µM) |  | 63.3 |  |  |  |  |  | 
9 | Cc1ccc(N/N=C2\C(=O)N(c3ccccc3)N=C2C(F)(F)C(F)(F)F)cc1 [6b, (4Z)-4-[2-(4-Methylphenyl)hydrazinylidene]-5-(pentafluoroethyl)-2-phenyl-2,4-dihydro-3H-pyrazol-3-one] |  | 0.04 ± 0.002 | 158 | 100 | 98.6 ± 6.32 | 0.9 (≈ 2.27 µM) |  | 74.3 |  |  |  |  |  | 
10 | Cc1ccc(N/N=C2\C(=O)NN=C2C(F)(F)C(F)(F)C(F)(F)F)cc1 [7a, (4Z)-5-(Heptafluoropropyl)-4-[2-(4-methylphenyl)hydrazinylidene]-2,4-dihydro-3H-pyrazol-3-one] | 41.5 ± 1.8 | 0.54 ± 0.03 |  | 100 |  | > 250 | > 200 |  | 200 (≈ 540 µM) |  |  |  | 42 | 52
11 | Cc1ccc(N/N=C2\C(=O)N(c3ccccc3)N=C2C(F)(F)C(F)(F)C(F)(F)F)cc1 [7b, (4Z)-5-(Heptafluoropropyl)-4-[2-(4-methylphenyl)hydrazinylidene]-2-phenyl-2,4-dihydro-3H-pyrazol-3-one] |  | 0.03 ± 0.002 |  | 100 | 73.8 ± 5.32 | 31.2 (≈ 69.9 µM) |  |  |  |  |  |  | 144 | 82.3
12 | CC1=NNC(=O)/C1=N\Nc1ccc(C)cc1 [9a, (4Z)-5-Methyl-4-[2-(4-methylphenyl)hydrazinylidene]-2,4-dihydro-3H-pyrazol-3-one] | 25.4 ± 1.1 | 0.86 and 0.86 ± 0.04 | 80.8 | 100 | 24.3 ± 1.82 | > 250 |  |  |  |  |  |  |  | 
13 | CC1=NN(c2ccccc2)C(=O)/C1=N\Nc1ccc(C)cc1 [9b, (4Z)-5-Methyl-4-[2-(4-methylphenyl)hydrazinylidene]-2-phenyl-2,4-dihydro-3H-pyrazol-3-one] | 28.3 ± 1.2 | 0.8 and 0.80 ± 0.05 |  | 100 | 24.1 ± 3.21 | > 250 | > 200 | 140 | > 200 |  |  |  |  | 
